Experimental data: US20150105252A1, “SUBSTITUTED PYRAZOLES AS HERBICIDES” (E I DU PONT DE NEMOURS AND COMPANY, priority 2013, published 2015)

Legend:
crabgrass, large [1] = test: Test C preemergence; format: in vivo, Digitaria sanguinalis; conditions: preemergence; for Plant response rating, Crabgrass, Large: 125 g ai/ha, scale 0 to 100, 0 = no effect, 100 = complete control
In short: (§1)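 In this greenhouse assay, seeded soil (loam plus sand) or emerged seedlings in peat-vermiculite medium were treated with formulated compound. Roughly two weeks later (13–15 days), each species was scored visually relative to controls, from 0 for no effect to 100 for complete control.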

morningglory = test: Test A preemergence; format: in vivo, Ipomoea spp.; conditions: preemergence
In short: (§2)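 Growth medium: loam soil blended with sand. Preemergence treatment used a directed soil spray right after planting; postemergence treatment targeted seedlings at one to two leaves (2–10 cm height). Response was judged by eye relative to untreated plants about 10 days later on a 0–100 control scale.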

pigweed [2] = test: Test A postemergence; format: in vivo, Amaranthus retroflexus
In short: as §2

pigweed [3] = test: Test A preemergence; format: in vivo, Amaranthus retroflexus; conditions: preemergence
In short: as §2

oilseed rape = test: Test C preemergence; format: in vivo, Brassica napus; conditions: preemergence; for Plant response rating, Oilseed Rape: 125 g ai/ha, scale 0 to 100, 0 = no effect, 100 = complete control
In short: as §1

galium = test: Test C preemergence; format: in vivo, Galium aparine; conditions: preemergence; for Plant response rating, Galium: 125 g ai/ha, scale 0 to 100, 0 = no effect, 100 = complete control
In short: as §1

ducksalad = test: Test B flood; format: in vivo, Heteranthera limosa; conditions: 250 g ai/ha, visual rating on 0 to 100 scale (0 no effect, 100 complete control), 13 to 15 days
In short: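 Two-leaf-stage plants, pots flooded (3 cm above soil) and treated through the water, which stayed at that depth. After 13–15 days in greenhouse conditions, visual assessment versus controls: 0 is no effect, 100 complete control, dash means no result.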

crabgrass, large [4] = test: Test A postemergence; format: in vivo, Digitaria sanguinalis
In short: as §2

barnyardgrass = test: Test A postemergence; format: in vivo, Echinochloa crus-galli
In short: as §2

blackgrass = test: Test C preemergence; format: in vivo, Alopecurus myosuroides; conditions: preemergence; for Plant response rating, Blackgrass: 125 g ai/ha, scale 0 to 100, 0 = no effect, 100 = complete control
In short: as §1

soybean = test: Test C preemergence; format: in vivo, Glycine max; conditions: preemergence; for Plant response rating, Soybean: 125 g ai/ha, scale 0 to 100, 0 = no effect, 100 = complete control
In short: as §1

wheat = test: Test C preemergence; format: in vivo, Triticum aestivum; conditions: preemergence; for Plant response rating, Wheat: 125 g ai/ha, scale 0 to 100, 0 = no effect, 100 = complete control
In short: as §1

johnsongrass = test: Test C preemergence; format: in vivo, Sorghum halepense; conditions: preemergence; for Plant response rating, Johnsongrass: 125 g ai/ha, scale 0 to 100, 0 = no effect, 100 = complete control
In short: as §1

corn = test: Test A preemergence; format: in vivo, Zea mays; conditions: preemergence
In short: as §2

[5] = 31 g ai/ha, visual rating, scale 0 to 100 (0 no effect, 100 complete control), 13 to 15 days
[6] = 62 g ai/ha, scale 0 to 100 (0 no effect, 100 complete control), 13 to 15 days
[7] = 250 g ai/ha, scale 0 to 100, 0 is no effect, 100 is complete control
[8] = 125 g ai/ha, visual injury, 0 to 100 scale, approx. 10 days
[9] = 500 g ai/ha, visual injury after approx. 10 days, 0 to 100 scale (0 no effect, 100 complete control)
[10] = Postemergence, 500 g ai/ha, 0 to 100 scale (0 no effect, 100 complete control)
[11] = postemergence, 125 g ai/ha, about 10 days, visual rating on 0 to 100 scale (0 no effect, 100 complete control)

## CCc1cc(C(=O)NC(C)C)nn1Cc1ccnc(C(F)(F)F)c1 [Compound 139]
crabgrass, large [1]; [5]
  Crabgrass, Large plant response rating: 100
crabgrass, large [1]; [6]
  Crabgrass, Large plant response rating: 100
crabgrass, large [1]; 13 to 15 days
  Plant response rating, Crabgrass, Large: 100
crabgrass, large [1]; [7]
  Crabgrass, Large plant response rating: 100
morningglory; [8]
  Morningglory plant response rating: 40
morningglory; [9]
  Morningglory plant response rating: 100
Pigweed [2]; [10]
  Pigweed plant response rating: 100
Pigweed [2]; [11]
  Pigweed plant response rating: 90
Pigweed [3]; [8]
  Pigweed plant response rating: 100
Pigweed [3]; [9]
  Pigweed plant response rating: 100
Oilseed rape; [5]
  Oilseed Rape plant response rating: 50
Oilseed rape; [6]
  Oilseed Rape plant response rating: 100
Oilseed rape; 13 to 15 days
  Plant response rating, Oilseed Rape: 100
Oilseed rape; [7]
  Oilseed Rape plant response rating: 100
galium; [5]
  Galium plant response rating: 30
galium; [6]
  Galium plant response rating: 80
galium; 13 to 15 days
  Plant response rating, Galium: 100
galium; [7]
  Galium plant response rating: 100
ducksalad
  Plant response rating, Ducksalad: 100
crabgrass, large [4]; [10]
  Crabgrass, Large plant response rating: 90
crabgrass, large [4]; [11]
  Crabgrass, Large plant response rating: 90
barnyardgrass; [10]
  Barnyardgrass plant response rating: 90
barnyardgrass; [11]
  Barnyardgrass plant response rating: 80
blackgrass; [5]
  Blackgrass plant response rating: 85
blackgrass; [6]
  Blackgrass plant response rating: 90
blackgrass; 13 to 15 days
  Plant response rating, Blackgrass: 90
blackgrass; [7]
  Blackgrass plant response rating: 90
soybean; [5]
  Soybean plant response rating: 5
soybean; [6]
  Soybean plant response rating: 5
soybean; 13 to 15 days
  Plant response rating, Soybean: 30
soybean; [7]
  Soybean plant response rating: 60
wheat; [5]
  Wheat plant response rating: 30
wheat; [6]
  Wheat plant response rating: 85
wheat; 13 to 15 days
  Plant response rating, Wheat: 85
wheat; [7]
  Wheat plant response rating: 90
johnsongrass; [5]
  Johnsongrass plant response rating: 10
johnsongrass; [6]
  Johnsongrass plant response rating: 70
johnsongrass; 13 to 15 days
  Plant response rating, Johnsongrass: 85
johnsongrass; [7]
  Johnsongrass plant response rating: 98
corn; [8]
  Corn plant response rating: 30
corn; [9]
  Corn plant response rating: 90

## O=C(NCC(F)(F)F)c1cc(CCCl)n(Cc2ccnc(C(F)(F)F)c2)n1 [Compound 143]
crabgrass, large [1]; [5]
  Crabgrass, Large plant response rating: 100
crabgrass, large [1]; [6]
  Crabgrass, Large plant response rating: 100
crabgrass, large [1]; 13 to 15 days
  Plant response rating, Crabgrass, Large: 100
crabgrass, large [1]; [7]
  Crabgrass, Large plant response rating: 100
morningglory; [8]
  Morningglory plant response rating: 100
morningglory; [9]
  Morningglory plant response rating: 100
Pigweed [2]; [10]
  Pigweed plant response rating: 100
Pigweed [2]; [11]
  Pigweed plant response rating: 100
Pigweed [3]; [8]
  Pigweed plant response rating: 100
Pigweed [3]; [9]
  Pigweed plant response rating: 100
Oilseed rape; [5]
  Oilseed Rape plant response rating: 100
Oilseed rape; [6]
  Oilseed Rape plant response rating: 100
Oilseed rape; 13 to 15 days
  Plant response rating, Oilseed Rape: 95
Oilseed rape; [7]
  Oilseed Rape plant response rating: 100
galium; [5]
  Galium plant response rating: 90
galium; [6]
  Galium plant response rating: 100
galium; 13 to 15 days
  Plant response rating, Galium: 95
galium; [7]
  Galium plant response rating: 100
ducksalad
  Plant response rating, Ducksalad: 100
crabgrass, large [4]; [10]
  Crabgrass, Large plant response rating: 90
crabgrass, large [4]; [11]
  Crabgrass, Large plant response rating: 90
barnyardgrass; [10]
  Barnyardgrass plant response rating: 90
barnyardgrass; [11]
  Barnyardgrass plant response rating: 60
blackgrass; [5]
  Blackgrass plant response rating: 85
blackgrass; [6]
  Blackgrass plant response rating: 85
blackgrass; 13 to 15 days
  Plant response rating, Blackgrass: 90
blackgrass; [7]
  Blackgrass plant response rating: 90
soybean; [5]
  Soybean plant response rating: 35
soybean; [6]
  Soybean plant response rating: 85
soybean; 13 to 15 days
  Plant response rating, Soybean: 98
soybean; [7]
  Soybean plant response rating: 98
wheat; [5]
  Wheat plant response rating: 40
wheat; [6]
  Wheat plant response rating: 60
wheat; 13 to 15 days
  Plant response rating, Wheat: 80
wheat; [7]
  Wheat plant response rating: 85
johnsongrass; [5]
  Johnsongrass plant response rating: 70
johnsongrass; [6]
  Johnsongrass plant response rating: 85
johnsongrass; 13 to 15 days
  Plant response rating, Johnsongrass: 95
johnsongrass; [7]
  Johnsongrass plant response rating: 95
corn; [8]
  Corn plant response rating: 50
corn; [9]
  Corn plant response rating: 80
